Molecules are shown by their SMILES.

Series [1] in a line: IV Cassette PK Assay in rats. The following applies: rat, male Wistar-Han rats, plasma, read-out: Cassette PK T1/2 (hr), Imidazo-Pyrazinyl Analog (converted). The class given is in vivo. The procedure:
The results were obtained using the following the procedure:
Adult male Wistar-Han rats were fasted overnight and administered a cassette IV dose of mixture of several compounds via a previously implanted catheter in the femoral vein. Animals were allowed access to food 4 h post dose. Blood samples were collected into EDTA-containing tubes at the following time points: 0.03, 0.13, 0.25, 0.5, 1, 2, 4, 8 h post-dose. Blood samples were stored on ice until plasma was harvested by centrifugation. Plasma was transferred to a 96-well plate and stored at −20° C. until analysis. Concentrations of each compound in rat plasma were determined by LC-MS/MS following protein precipitation.

Series [2] has as its system Spontaneously hypertensive rats (SHR). Briefly: Acute Efficacy in Spontaneously Hypertensive Rats (SHR), telemetry blood pressure. The class given is in vivo, rat. The note with it: single oral gavage. The gist of the method: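 Male SHR fitted with aortic telemetry transmitters and recovered 14 days; conscious blood pressure sampled 30 s every 10 min. Single oral gavage dose (vehicle 10% transcutol/20% Cremophor/70% water); hourly SBP change versus prior-day vehicle baseline, reported as maximum peak decrease.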

A further series concerns the target T1, sGC α1/β1 heterodimer (Homo sapiens, UniProt Q02108+Q02153).
T1 construct: expressed in transfected cells
T1 sequence (Q02108 1-690): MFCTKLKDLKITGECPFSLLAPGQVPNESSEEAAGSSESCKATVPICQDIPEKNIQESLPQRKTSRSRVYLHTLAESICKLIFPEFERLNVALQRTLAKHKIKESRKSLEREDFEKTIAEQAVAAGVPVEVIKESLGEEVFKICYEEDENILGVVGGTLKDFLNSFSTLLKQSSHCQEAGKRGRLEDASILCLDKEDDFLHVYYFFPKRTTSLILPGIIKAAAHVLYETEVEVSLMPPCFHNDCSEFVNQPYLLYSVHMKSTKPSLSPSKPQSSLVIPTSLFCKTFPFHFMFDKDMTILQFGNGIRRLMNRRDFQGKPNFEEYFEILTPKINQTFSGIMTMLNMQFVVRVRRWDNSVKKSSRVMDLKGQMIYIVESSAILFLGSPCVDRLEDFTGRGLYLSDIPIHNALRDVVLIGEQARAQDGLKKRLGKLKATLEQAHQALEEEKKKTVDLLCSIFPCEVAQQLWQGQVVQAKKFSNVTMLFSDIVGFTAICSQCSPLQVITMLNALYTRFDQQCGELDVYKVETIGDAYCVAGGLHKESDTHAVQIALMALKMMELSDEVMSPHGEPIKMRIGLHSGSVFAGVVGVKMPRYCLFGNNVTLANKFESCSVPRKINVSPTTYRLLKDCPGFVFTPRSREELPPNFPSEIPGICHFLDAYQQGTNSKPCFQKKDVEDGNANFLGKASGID
T1 sequence (Q02153 1-619): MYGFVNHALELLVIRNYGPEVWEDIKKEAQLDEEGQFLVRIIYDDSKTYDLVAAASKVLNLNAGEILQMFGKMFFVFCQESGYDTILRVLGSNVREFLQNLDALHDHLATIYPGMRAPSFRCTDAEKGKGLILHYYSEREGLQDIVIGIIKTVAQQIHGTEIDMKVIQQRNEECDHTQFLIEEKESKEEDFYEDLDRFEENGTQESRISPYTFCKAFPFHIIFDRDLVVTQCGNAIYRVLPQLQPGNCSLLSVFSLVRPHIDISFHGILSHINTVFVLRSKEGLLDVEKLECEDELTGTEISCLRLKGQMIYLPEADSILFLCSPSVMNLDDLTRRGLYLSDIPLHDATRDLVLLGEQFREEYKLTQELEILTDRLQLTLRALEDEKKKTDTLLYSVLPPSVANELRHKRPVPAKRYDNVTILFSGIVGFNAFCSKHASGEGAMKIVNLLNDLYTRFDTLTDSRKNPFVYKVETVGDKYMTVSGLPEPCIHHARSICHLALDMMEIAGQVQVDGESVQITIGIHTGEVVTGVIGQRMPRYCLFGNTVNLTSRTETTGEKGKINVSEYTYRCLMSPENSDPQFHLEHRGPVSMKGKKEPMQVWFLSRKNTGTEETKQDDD
Kind of series: Cell-Based sGC Functional Assay (CASA Assay), cGMP generation in CHO-K1/sGC cells.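 Further: reference Compound A is a published heme-dependent sGC activator.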 The note with it: maximum cGMP production of Compound A set to 100% activation, read-out: % Act. (percent activation relative to Compound A). The gist of the method: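 CHO-K1 cells stably expressing human sGC α1/β1, 4×10^5/mL in EBSS with 5 mM MgCl2, 10 mM HEPES, 0.05% BSA, 0.5 mM IBMX, 2.5% DMSO; compounds 1 h at 37 °C ± 1 μM DETA-NO. cGMP by HTRF, expressed as % of reference Compound A maximum; IP and max fold induction from 4P fit.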

Take `CC1(c2ccc(F)cn2)C(=O)Nc2nc(-c3cn4ccnc4c(CCC(F)(F)C(F)(F)F)n3)nc(N)c21` (stereo not shown): in series [1], the half-life was 1.41 h.
As to `Nc1nc(-c2cn3ccnc3c(CCCC(F)(F)F)n2)nc2c1C(c1ccc(C(F)F)cn1)(C1CC1)C(=O)N2` (stereo not shown), the half-life in series [1] is 2.12 h.
Regarding `CCCc1nc(-c2nc(O)c3c(n2)NC(=O)C3(C)c2ccc(Cl)cc2)cn2ncnc12` (stereo not shown) [Example 164A, 5-(4-chlorophenyl)-4-hydroxy-5-methyl-2-(8-propyl-[1,2,4]triazolo[1,5-a]pyrazin-6-yl)-5H-pyrrolo[2,3-d]pyrimidin-6(7H)-one], in series [2] (P.O. 2 mpk), the “Maximum peak decrease of systolic blood pressure (SBP) in SHR, Cat.” value (“Maximum peak decrease” for short) is “B (Category B=SBP in SHRs 20-40 mmHg)”. Moreover, the Emax at sGC α1/β1 heterodimer worked out at 253%.
Consider `CCCc1nc(-c2nc(O)c3c(n2)NC(=O)[C@@]3(C)c2ccc(F)cc2)cn2ncnc12` [Example 165A, (S)-5-(4-fluorophenyl)-4-hydroxy-5-methyl-2-(8-propyl-[1,2,4]triazolo[1,5-a]pyrazin-6-yl)-5,7-dihydro-6H-pyrrolo[2,3-d]pyrimidin-6-one], for which the “Maximum peak decrease” value in series [2] (P.O. 3 mpk) was “B (Category B=SBP in SHRs 20-40 mmHg)”. Moreover, the Emax at sGC α1/β1 heterodimer came to 114%.
For the compound `CCCc1nc(-c2nc(O)c3c(n2)NC(=O)C3(C)c2ccc(Cl)c(F)c2)cn2ncnc12` (stereo not shown) [Example 166B, 5-(4-chloro-3-fluorophenyl)-4-hydroxy-5-methyl-2-(8-propyl-[1,2,4]triazolo[1,5-a]pyrazin-6-yl)-5H-pyrrolo[2,3-d]pyrimidin-6(7H)-one], the “Maximum peak decrease” value in series [2] (P.O. 3 mpk) is given as “B (Category B=SBP in SHRs 20-40 mmHg)”. Also, on sGC α1/β1 heterodimer, the Emax is 117%.
Consider `CC(C)Cc1nc(-c2ncc3c(n2)NC(=O)[C@@]3(C)c2ccc(F)cc2)cn2ncnc12` [Example 173A, (S)-5-(4-fluorophenyl)-2-(8-isobutyl-[1,2,4]triazolo[1,5-a]pyrazin-6-yl)-5-methyl-5,7-dihydro-6H-pyrrolo[2,3-d]pyrimidin-6-one], for which the “Maximum peak decrease” value in series [2] (P.O. 1 mpk) is on record as “A (Category A=SBP in SHRs <20 mmHg)”. Also, at sGC α1/β1 heterodimer, the Emax came out at 176%.
In the case of `C[C@@]1(c2ccc(F)cc2)C(=O)Nc2nc(-c3cn4ncnc4c(CCC(F)(F)C(F)(F)F)n3)nc(C(N)=O)c21` [Example 177A, 5-(4-Fluorophenyl)-5-methyl-6-oxo-2-(8-(3,3,4,4,4-pentafluorobutyl)-[1,2,4]triazolo[1,5-a]pyrazin-6-yl)-6,7-dihydro-5H-pyrrolo[2,3-d]pyrimidine-4-carboxamide], the “Maximum peak decrease” value in series [2] (P.O. 1 mpk) was “C (Category C=SBP in SHRs >40 mmHg)”. The Emax at sGC α1/β1 heterodimer was found to be 168%.
The matching figures for `NC(=O)c1nc(-c2cn3ncnc3c(CCCC(F)(F)F)n2)nc2c1C(c1ccc(C(F)(F)F)cn1)(C1CC1)C(=O)N2` (stereo not shown) [Example 178A]: “B (Category B=SBP in SHRs 20-40 mmHg)” and 108%.
As for `CC1(c2ccc(C(F)(F)F)cn2)C(=O)Nc2nc(-c3cn4ncnc4c(CCCC(F)(F)F)n3)nc(C(N)=O)c21` (stereo not shown) [Example 179B, 5-methyl-6-oxo-2-(8-(4,4,4-trifluorobutyl)-[1,2,4]triazolo[1,5-a]pyrazin-6-yl)-5-(5-(trifluoromethyl)pyridin-2-yl)-6,7-dihydro-5H-pyrrolo[2,3-d]pyrimidine-4-carboxamide], the “Maximum peak decrease” value in series [2] (P.O. 0.3 mpk) is “B (Category B=SBP in SHRs 20-40 mmHg)”. At sGC α1/β1 heterodimer, the Emax worked out at 101%.

Source of the values: patent US10925876B2, “Methods for using triazolo-pyrazinyl soluble guanylate cyclase activators in fibrotic disorders” (Merck Sharp & Dohme Corp., priority 2016, dated 2021).
